From PMC11509018, “Evaluation of the Role of Tanshinone I in an In Vitro System of Charcot-Marie-Tooth Disease Type 2N” (International Journal of Molecular Sciences, 2024) come the findings set out here.

The target of this assay is T1, AlaRS^G102R (Homo sapiens, UniProt P49588, G102R).
T1 construct: made in house; host or cells: E. coli BL21 (DE3), pET-21a
T1 sequence (P49588 1-968 G102R): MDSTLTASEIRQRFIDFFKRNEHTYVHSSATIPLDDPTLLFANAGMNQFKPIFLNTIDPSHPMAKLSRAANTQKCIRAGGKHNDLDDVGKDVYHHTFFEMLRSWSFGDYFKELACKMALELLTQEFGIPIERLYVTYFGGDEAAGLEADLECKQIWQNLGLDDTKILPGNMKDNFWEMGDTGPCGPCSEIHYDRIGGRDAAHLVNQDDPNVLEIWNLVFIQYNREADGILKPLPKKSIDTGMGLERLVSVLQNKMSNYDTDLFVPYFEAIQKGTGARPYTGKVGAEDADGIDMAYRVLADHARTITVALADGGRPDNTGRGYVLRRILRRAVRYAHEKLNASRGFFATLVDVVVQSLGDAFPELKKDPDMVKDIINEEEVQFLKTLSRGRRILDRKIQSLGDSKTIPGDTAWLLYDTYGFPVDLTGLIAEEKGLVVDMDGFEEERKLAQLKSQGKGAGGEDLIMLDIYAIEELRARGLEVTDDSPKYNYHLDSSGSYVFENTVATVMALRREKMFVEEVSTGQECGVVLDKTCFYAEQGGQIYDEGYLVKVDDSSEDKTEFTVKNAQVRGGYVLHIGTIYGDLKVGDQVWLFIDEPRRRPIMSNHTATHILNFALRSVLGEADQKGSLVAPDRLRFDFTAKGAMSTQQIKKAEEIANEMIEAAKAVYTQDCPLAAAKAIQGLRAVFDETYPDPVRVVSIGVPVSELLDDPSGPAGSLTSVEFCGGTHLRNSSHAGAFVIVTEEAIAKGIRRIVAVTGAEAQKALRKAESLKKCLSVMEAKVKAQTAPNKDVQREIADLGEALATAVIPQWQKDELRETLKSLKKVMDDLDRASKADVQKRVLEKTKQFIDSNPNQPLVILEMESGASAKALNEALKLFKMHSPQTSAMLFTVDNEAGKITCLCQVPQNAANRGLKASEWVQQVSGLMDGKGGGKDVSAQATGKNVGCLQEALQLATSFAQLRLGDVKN
Description: Biolayer interferometry (BLI). The format is binding. The note with it: immobilized AlaRS^G102R, mean ± SD, triplicate. The procedure:
Furthermore, we examined the interaction of Tanshinone I with additional AlaRS CMT mutants capable of binding to Nrp1 and causing conformational changes by BLI and proteolysis assays on additional related mutants. […] To further quantify the binding of small molecules to mutant proteins, binding experiments with AlaRS^R329H proteins and small molecules were conducted using an Octet R8 system (ForteBio, Fremont, CA, USA). Purified His-tagged AlaRS^R329H proteins (500 μg/mL) were captured on Ni-NTA biosensors (ForteBio, Fremont, CA, USA), achieving a saturation response of 4–5 nm after 300 s. The biosensors were then transferred to Octet buffer (PBS with 0.01% Tween 20) for 180 s to remove loosely bound, nonspecific proteins and to establish a stable baseline. Following this, the sensors were immersed in diluted Tanshinone I (2.5–100 μM in assay buffer) for 120 s to record the association signal, and then transferred back into Octet buffer to monitor the dissociation signal for 120 s. Reference wells containing buffer instead of Tanshinone I were included to correct for baseline shifts. Additionally, a parallel set of Ni-NTA sensors in buffer served as negative reference controls to account for nonspecific binding of the compounds to the biosensor surface. The data were processed using a double reference subtraction protocol to eliminate nonspecific signals, background noise, and signal drifts caused by biosensor variability. All assays were performed in 96-well black plates with a total volume of 200 μL per well at 30 °C. Data analysis, including correction and curve fitting, was carried out using Octet® Analysis Studio 12.2.2.26. The experiment was repeated three times.
On the technique in general: Biolayer interferometry detects binding as a change in optical thickness at a sensor tip.

A word on the Kd: it is the free concentration of one partner at which half of the binding sites on the other are occupied at equilibrium, for simple one-to-one binding. Read a high Kd as weaker binding. Turning to `Cc1coc2c1C(=O)C(=O)c1c-2ccc2c(C)cccc12` [Tanshinone I], the Kd is 31.2 ± 11.9 µM.
